Among the data in patent publication US12371428B2 (Exelixis, Inc., priority 2019, dated 2025) are IC50 values, retold here.

The structures appear in SMILES notation.

What all share (format): cell-based
Assay [1] deals with AXL (phospho-AXL, Gas6-stimulated A-172 glioblastoma cells) (Homo sapiens (Human), UniProt P30530). Kind of assay: AXL autophosphorylation ELISA in A-172 cells (Example E). The note with it: cellular activity; AXL autophosphorylation ELISA in A-172 cells; read-out: Axl IC50. The essentials: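 Phospho-AXL was measured by ELISA in lysates of Gas6-stimulated A-172 cells, starved 24 h in serum-free medium and exposed 1 h to an 8-point compound dilution at 0.3% DMSO.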
Sequence of AXL (phospho-AXL, Gas6-stimulated A-172 glioblastoma cells) (P30530 26-894): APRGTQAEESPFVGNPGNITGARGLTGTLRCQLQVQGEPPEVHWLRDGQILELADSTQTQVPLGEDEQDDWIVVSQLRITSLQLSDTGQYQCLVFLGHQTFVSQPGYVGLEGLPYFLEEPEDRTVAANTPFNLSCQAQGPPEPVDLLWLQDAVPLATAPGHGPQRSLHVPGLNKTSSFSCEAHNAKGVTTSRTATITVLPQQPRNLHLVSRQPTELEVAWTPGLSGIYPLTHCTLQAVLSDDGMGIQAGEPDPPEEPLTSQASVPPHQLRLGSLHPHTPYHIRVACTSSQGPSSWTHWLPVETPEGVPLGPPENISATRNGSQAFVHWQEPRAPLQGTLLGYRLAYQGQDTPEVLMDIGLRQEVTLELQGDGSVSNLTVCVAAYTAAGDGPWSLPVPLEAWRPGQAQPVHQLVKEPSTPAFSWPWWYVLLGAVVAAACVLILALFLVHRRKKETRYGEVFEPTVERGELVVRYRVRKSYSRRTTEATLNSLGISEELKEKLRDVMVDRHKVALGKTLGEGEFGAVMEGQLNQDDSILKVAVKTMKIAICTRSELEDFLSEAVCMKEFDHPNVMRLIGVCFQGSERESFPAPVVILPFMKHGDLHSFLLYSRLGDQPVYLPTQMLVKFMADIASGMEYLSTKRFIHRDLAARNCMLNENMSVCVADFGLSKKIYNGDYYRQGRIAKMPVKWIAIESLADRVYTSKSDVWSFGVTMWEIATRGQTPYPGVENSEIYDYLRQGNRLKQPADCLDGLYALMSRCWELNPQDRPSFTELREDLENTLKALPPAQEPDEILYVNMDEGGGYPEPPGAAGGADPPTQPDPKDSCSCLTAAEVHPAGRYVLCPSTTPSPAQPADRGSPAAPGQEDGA
For orientation: ELISA stands for enzyme-linked immunosorbent assay.

In assay [2] the target is Met (phospho-Met, HGF-stimulated PC-3 prostate cancer cells) (Homo sapiens (Human), UniProt P08581). Kind of assay: Met autophosphorylation ELISA in PC-3 cells (Example F). Conditions: cellular activity; Met autophosphorylation ELISA in PC-3 cells; read-out: c-Met IC50. The essentials: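 Serum-starved (3 h) PC-3 cells were treated 1 h with compounds (8-point curve, 0.3% DMSO), then stimulated with 100 ng/mL human HGF for 10 min. Lysate phospho-Met (panTyr) was measured by sandwich ELISA, normalised to DMSO and reference-inhibitor controls. IC50 came from 4-parameter logistic fit.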
Sequence of Met (phospho-Met, HGF-stimulated PC-3 prostate cancer cells) (P08581 25-1390): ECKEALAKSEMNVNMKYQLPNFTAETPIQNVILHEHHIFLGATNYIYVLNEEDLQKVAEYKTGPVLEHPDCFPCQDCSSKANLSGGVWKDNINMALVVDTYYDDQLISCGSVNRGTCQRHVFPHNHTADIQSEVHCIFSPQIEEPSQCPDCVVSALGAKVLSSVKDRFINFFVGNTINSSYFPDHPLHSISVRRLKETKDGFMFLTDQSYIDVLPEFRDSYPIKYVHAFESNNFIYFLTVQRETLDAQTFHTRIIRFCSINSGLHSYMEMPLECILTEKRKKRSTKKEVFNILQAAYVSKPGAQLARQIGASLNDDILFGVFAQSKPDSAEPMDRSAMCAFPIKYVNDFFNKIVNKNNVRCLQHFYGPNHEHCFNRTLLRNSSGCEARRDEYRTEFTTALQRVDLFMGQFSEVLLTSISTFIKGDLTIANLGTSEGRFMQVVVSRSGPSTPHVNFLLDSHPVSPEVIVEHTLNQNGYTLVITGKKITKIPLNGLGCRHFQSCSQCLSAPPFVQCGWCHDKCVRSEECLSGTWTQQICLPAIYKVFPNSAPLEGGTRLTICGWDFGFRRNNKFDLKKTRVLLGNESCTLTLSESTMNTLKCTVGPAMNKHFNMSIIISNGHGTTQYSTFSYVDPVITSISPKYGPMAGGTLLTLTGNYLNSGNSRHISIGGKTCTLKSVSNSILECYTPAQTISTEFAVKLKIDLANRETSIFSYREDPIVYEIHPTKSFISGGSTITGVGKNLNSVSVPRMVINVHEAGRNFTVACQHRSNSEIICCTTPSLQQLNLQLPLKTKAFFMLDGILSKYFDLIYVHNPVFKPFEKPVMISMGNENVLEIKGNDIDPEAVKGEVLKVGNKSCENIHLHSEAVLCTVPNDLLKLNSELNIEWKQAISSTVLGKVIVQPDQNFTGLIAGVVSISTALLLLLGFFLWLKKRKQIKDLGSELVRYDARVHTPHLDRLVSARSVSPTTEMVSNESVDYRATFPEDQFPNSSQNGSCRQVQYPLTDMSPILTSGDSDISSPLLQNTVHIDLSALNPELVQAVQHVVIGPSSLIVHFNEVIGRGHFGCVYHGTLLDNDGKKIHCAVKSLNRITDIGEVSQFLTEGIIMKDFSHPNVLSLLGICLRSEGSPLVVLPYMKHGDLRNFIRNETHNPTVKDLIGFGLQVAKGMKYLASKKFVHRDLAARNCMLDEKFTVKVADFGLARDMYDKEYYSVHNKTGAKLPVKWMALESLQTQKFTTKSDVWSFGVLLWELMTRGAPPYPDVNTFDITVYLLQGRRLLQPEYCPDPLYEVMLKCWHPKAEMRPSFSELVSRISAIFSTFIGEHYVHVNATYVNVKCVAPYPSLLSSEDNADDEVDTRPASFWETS

In assay [3] the target is KDR (phospho-KDR, VEGF165-stimulated HUVEC cells) (Homo sapiens (Human), UniProt P35968). The assay is described as follows: KDR autophosphorylation ELISA in HUVEC cells (Example G). Conditions: cellular activity; KDR autophosphorylation ELISA in HUVEC cells. Summed up: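 Inhibition of VEGF165-driven KDR autophosphorylation is measured in primary human umbilical vein endothelial cells after 24 h serum deprivation. Compound preincubation lasts 1 h before a 5-minute challenge with 100 ng/mL ligand, and phosphorylated receptor is then measured by ELISA in the lysates.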
Sequence of KDR (phospho-KDR, VEGF165-stimulated HUVEC cells) (P35968 20-1356): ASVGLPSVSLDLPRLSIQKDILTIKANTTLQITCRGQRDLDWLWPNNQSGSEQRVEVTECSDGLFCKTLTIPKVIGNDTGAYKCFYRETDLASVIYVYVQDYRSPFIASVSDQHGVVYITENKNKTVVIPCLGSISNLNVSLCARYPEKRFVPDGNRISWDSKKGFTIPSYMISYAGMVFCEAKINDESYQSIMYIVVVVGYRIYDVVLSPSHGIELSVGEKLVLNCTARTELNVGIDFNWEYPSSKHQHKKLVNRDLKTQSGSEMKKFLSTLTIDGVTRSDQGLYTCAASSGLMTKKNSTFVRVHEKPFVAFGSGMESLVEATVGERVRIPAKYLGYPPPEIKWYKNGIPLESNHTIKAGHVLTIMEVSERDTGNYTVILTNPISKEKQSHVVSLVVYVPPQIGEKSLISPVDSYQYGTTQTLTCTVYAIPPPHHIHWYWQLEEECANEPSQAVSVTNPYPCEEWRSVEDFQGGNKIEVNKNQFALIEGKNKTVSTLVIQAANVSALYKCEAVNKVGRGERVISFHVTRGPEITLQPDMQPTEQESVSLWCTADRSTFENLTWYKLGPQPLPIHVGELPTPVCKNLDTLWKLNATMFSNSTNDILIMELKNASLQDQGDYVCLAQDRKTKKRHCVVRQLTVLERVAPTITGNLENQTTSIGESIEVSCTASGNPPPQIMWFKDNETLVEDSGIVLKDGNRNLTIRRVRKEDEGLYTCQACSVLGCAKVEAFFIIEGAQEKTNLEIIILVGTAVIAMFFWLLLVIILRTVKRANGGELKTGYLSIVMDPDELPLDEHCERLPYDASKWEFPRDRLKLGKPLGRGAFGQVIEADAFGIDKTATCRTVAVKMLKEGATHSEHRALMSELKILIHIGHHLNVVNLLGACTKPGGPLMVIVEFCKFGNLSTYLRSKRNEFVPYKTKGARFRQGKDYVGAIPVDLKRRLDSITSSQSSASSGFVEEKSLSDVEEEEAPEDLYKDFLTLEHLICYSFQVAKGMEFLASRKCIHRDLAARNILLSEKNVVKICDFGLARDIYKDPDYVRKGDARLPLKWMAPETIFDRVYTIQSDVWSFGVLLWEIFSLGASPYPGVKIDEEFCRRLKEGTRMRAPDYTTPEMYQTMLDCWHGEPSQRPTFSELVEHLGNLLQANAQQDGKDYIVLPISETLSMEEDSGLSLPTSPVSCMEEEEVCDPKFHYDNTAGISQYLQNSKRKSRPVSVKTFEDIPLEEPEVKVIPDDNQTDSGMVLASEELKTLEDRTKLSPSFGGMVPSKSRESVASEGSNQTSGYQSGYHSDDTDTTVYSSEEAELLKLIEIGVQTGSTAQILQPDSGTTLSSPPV

The target in assay [4] is Mer (phospho-Mer, MERTK-transfected 293A cells) (Homo sapiens (Human), UniProt Q12866). Kind of assay: Mer autophosphorylation ELISA in transient transfected 293A cells (Example H). Conditions: cellular activity; Mer autophosphorylation ELISA in transient transfected 293A cells. The essentials:
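IC50 from 4-parameter logistic fit of phospho-Mer levels, quantified by ELISA against a phospho-Mer standard in lysates of MERTK-transfected 293A cells. Cells exposed 1 h to 8-point serial dilutions, serum-free, 0.3% DMSO; controls: DMSO (100%) and reference inhibitor (0%).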

Sequence of Mer (phospho-Mer, MERTK-transfected 293A cells) (Q12866 21-999): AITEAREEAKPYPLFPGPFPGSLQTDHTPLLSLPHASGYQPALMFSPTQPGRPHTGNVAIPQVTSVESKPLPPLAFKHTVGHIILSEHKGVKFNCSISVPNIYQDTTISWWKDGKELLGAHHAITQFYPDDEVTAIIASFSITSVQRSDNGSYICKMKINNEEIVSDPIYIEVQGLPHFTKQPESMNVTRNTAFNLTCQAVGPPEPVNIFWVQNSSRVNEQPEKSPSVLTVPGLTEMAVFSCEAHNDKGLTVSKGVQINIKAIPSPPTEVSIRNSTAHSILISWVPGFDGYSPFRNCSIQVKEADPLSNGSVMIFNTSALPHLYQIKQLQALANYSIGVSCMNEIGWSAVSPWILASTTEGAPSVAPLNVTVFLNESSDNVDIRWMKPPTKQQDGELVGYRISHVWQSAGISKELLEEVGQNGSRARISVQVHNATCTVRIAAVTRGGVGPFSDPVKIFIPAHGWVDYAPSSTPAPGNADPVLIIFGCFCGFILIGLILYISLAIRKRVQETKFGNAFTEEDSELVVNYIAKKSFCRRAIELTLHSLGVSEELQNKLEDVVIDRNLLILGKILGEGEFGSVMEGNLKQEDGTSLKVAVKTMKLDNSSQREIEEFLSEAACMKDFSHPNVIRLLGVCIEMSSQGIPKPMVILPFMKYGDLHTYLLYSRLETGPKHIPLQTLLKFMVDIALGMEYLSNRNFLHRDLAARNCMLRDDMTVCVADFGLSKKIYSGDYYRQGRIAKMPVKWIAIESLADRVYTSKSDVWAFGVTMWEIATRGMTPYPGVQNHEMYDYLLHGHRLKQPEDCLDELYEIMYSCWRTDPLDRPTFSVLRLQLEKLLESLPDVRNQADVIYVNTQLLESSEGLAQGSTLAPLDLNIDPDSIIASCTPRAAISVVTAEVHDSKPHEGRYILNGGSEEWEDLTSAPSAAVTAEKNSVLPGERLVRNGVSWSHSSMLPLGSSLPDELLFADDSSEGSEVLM

As for `COCc1nc(C)c(-c2ccc(F)cc2)c(OC)c1C(=O)Nc1ccc(Oc2ccnc3cc(OC)c(OC)nc23)c(F)c1` [Compound 663, N-[4-[(6,7-dimethoxy-1,5-naphthyridin-4-yl)oxy]-3-fluorophenyl]-5-(4-fluorophenyl)-4-methoxy-2-(methoxymethyl)-6-methylpyridine-3-carboxamide], the concentration for half-maximal inhibition (IC50) in assay [1] is under 100 nM; in assay [2] it was under 100 nM; in assay [3] it was over 300 nM; in assay [4] it was under 100 nM.
In the case of `C=Cc1c(C)c(C(=O)Nc2ccc(Oc3ccnc4cc(OC)c(OC)nc34)cc2)c(=O)n(-c2ccc(F)cc2)c1C` [Compound 328, N-[4-[(6,7-Dimethoxy-1,5-naphthyridin-4-yl)oxy]phenyl]-5-ethenyl-1-(4-fluorophenyl)-4,6-dimethyl-2-oxopyridine-3-carboxamide], the IC50 in assay [1] was under 100 nM; in assay [2], under 100 nM; in assay [3] it was over 300 nM; in assay [4], under 100 nM.
On to `COc1cc2nccc(Oc3ccc(NC(=O)c4nc(C)cn(-c5ccc(F)cc5)c4=O)cc3F)c2nc1OC` [Compound 684, N-[4-[(6,7-dimethoxy-1,5-naphthyridin-4-yl)oxy]-3-fluorophenyl]-4-(4-fluorophenyl)-6-methyl-3-oxopyrazine-2-carboxamide], for which the IC50 is under 100 nM in assay [1], under 100 nM in assay [2], over 300 nM in assay [3] and under 100 nM in assay [4].
On to `C=C(C)c1cnc2c(Oc3ccc(NC(=O)c4cnc(C)n(-c5ccc(F)cc5)c4=O)cc3F)ccnc2c1` [Compound 465, 1-(4-fluorophenyl)-N-[3-fluoro-4-[(7-prop-1-en-2-yl-1,5-naphthyridin-4-yl)oxy]phenyl]-2-methyl-6-oxopyrimidine-5-carboxamide], for which the IC50 in assay [1] is under 100 nM; in assay [2], under 100 nM; in assay [3], 100 to 300 nM; in assay [4] it was under 100 nM.
In the case of `CCOc1nc2c(Oc3ccc(NC(=O)c4c(C)ncc(-c5ccc(F)cc5)c4O)cc3F)ccnc2cc1OC` [Compound 675, N-[4-[(6-ethoxy-7-methoxy-1,5-naphthyridin-4-yl)oxy]-3-fluorophenyl]-5-(4-fluorophenyl)-4-hydroxy-2-methylpyridine-3-carboxamide], the IC50 in assay [1], in assay [2], in assay [3] and in assay [4] was under 100 nM each time.
Take `Cc1ccc(C(=O)Nc2ccc(Oc3ccnc4cnc(Cl)cc34)c(F)c2)c(=O)n1-c1ccc(F)cc1` [Compound 496, N-[4-[(6-chloro-1,7-naphthyridin-4-yl)oxy]-3-fluorophenyl]-1-(4-fluorophenyl)-6-methyl-2-oxopyridine-3-carboxamide]: the IC50 in assay [1], in assay [2], in assay [3] and in assay [4] was under 100 nM each time.
`C=C(C)c1cnc2c(Oc3ccc(NC(=O)c4c(C)nc(C)n(-c5ccc(F)cc5)c4=O)cc3)ccnc2c1` [Compound 467, 1-(4-fluorophenyl)-2,4-dimethyl-6-oxo-N-[4-[(7-prop-1-en-2-yl-1,5-naphthyridin-4-yl)oxy]phenyl]pyrimidine-5-carboxamide]: the half-maximal inhibitory concentration (IC50) in assay [1], in assay [2], in assay [3] and in assay [4] was under 100 nM throughout.
As to `COc1cc2nccc(Oc3ccc(NC(=O)c4c(C)ccn(-c5ccc(F)cc5C)c4=O)cc3)c2nc1OC` [Compound 332, N-[4-[(6,7-dimethoxy-1,5-naphthyridin-4-yl)oxy]phenyl]-1-(4-fluoro-2-methylphenyl)-4-methyl-2-oxopyridine-3-carboxamide], the IC50 in assay [1], in assay [2], in assay [3] and in assay [4] was under 100 nM in each case.
In the case of `C=C(C)c1cnc2c(Oc3ccc(NC(=O)c4n[nH]c(C)c(-c5ccc(F)cc5C)c4=O)cc3F)ccnc2c1` [Compound 463, 5-(4-fluoro-2-methylphenyl)-N-[3-fluoro-4-[(7-prop-1-en-2-yl-1,5-naphthyridin-4-yl)oxy]phenyl]-6-methyl-4-oxo-1H-pyridazine-3-carboxamide], the IC50 in assay [1], in assay [2], in assay [3] and in assay [4] was under 100 nM throughout.
Take `COc1cc(NC(=O)c2cn(C)c(C)c(-c3ccc(F)cc3)c2=O)c(F)cc1Oc1ccnc2cc(OC)c(OC)nc12` [Compound 745, N-[4-[(6,7-dimethoxy-1,5-naphthyridin-4-yl)oxy]-2-fluoro-5-methoxyphenyl]-5-(4-fluorophenyl)-1,6-dimethyl-4-oxopyridine-3-carboxamide]: the IC50 in assay [1] is under 100 nM; in assay [2] it was under 100 nM; in assay [3], over 300 nM; in assay [4] it was under 100 nM.
As for `COc1cnc2c(Oc3ccc(NC(=O)c4cnc(C)c(-c5ccc(F)c(OC)c5)c4O)cc3F)ccnc2c1` [Compound 670, N-[3-fluoro-4-[(7-methoxy-1,5-naphthyridin-4-yl)oxy]phenyl]-5-(4-fluoro-3-methoxyphenyl)-4-hydroxy-6-methylpyridine-3-carboxamide], the IC50 in assay [1], in assay [2], in assay [3] and in assay [4] was under 100 nM in each case.
`COc1cc2nccc(Oc3ccc(NC(=O)c4nnc(C)c(-c5ccc(F)cc5)c4Cl)cc3F)c2nc1OC` [Compound 488, 4-chloro-N-[4-[(6,7-dimethoxy-1,5-naphthyridin-4-yl)oxy]-3-fluorophenyl]-5-(4-fluorophenyl)-6-methylpyridazine-3-carboxamide]: the IC50 was 100 to 300 nM in assay [1], over 300 nM in assay [2], over 300 nM in assay [3] and under 100 nM in assay [4].
On to `COc1nc2c(Oc3ccc(NC(=O)c4n[nH]c(C)c(-c5ccc(F)cc5)c4=O)cc3F)ccnc2cc1C` [Compound 472, N-[3-fluoro-4-[(6-methoxy-7-methyl-1,5-naphthyridin-4-yl)oxy]phenyl]-5-(4-fluorophenyl)-6-methyl-4-oxo-1H-pyridazine-3-carboxamide], for which the IC50 in assay [1], in assay [2], in assay [3] and in assay [4] was under 100 nM each time.
Take `COc1cnc2c(Oc3cc(F)c(NC(=O)c4c(C)nc(C)c(-c5ccc(F)cc5C)c4O)cc3Cl)ccnc2c1` [Compound 770, N-[5-chloro-2-fluoro-4-[(7-methoxy-1,5-naphthyridin-4-yl)oxy]phenyl]-5-(4-fluoro-2-methylphenyl)-4-hydroxy-2,6-dimethylpyridine-3-carboxamide]: the IC50 in assay [1], in assay [2], in assay [3] and in assay [4] was under 100 nM throughout.
In the case of `COc1cc2nccc(Oc3ccc(NC(=O)c4cn(C5(C)COC5)cc(-c5ccc(F)cc5)c4=O)cc3F)c2nc1OC` [Compound 54, N-[4-[(6,7-Dimethoxy-1,5-naphthyridin-4-yl)oxy]-3-fluorophenyl]-5-(4-fluorophenyl)-1-(3-methyloxetan-3-yl)-4-oxopyridine-3-carboxamide], the IC50 was under 100 nM in assay [1], under 100 nM in assay [2], over 300 nM in assay [3] and under 100 nM in assay [4].
`COc1ccc(-c2c(C)nc(C)c(C(=O)Nc3ccc(Oc4ccnc5cc(OC)cnc45)c(F)c3)c2O)c(F)c1` [Compound 691, N-[3-fluoro-4-[(7-methoxy-1,5-naphthyridin-4-yl)oxy]phenyl]-5-(2-fluoro-4-methoxyphenyl)-4-hydroxy-2,6-dimethylpyridine-3-carboxamide]: the IC50 in assay [1] is 100 to 300 nM; in assay [2] it was under 100 nM; in assay [3] it was under 100 nM; in assay [4] it was under 100 nM.
On to `COc1cnc2c(Oc3ccc(NC(=O)c4cnc(C)c(-c5ccc(OC)c(F)c5)c4O)cc3F)ccnc2c1` [Compound 698, N-[3-fluoro-4-[(7-methoxy-1,5-naphthyridin-4-yl)oxy]phenyl]-5-(3-fluoro-4-methoxyphenyl)-4-hydroxy-6-methylpyridine-3-carboxamide], for which the IC50 was over 300 nM in assay [1], over 300 nM in assay [2], under 100 nM in assay [3] and under 100 nM in assay [4].
Take `COc1cnc2c(Oc3ccc(NC(=O)c4cn(C)c(C5CC5)c(-c5ccc(F)cc5)c4=O)cc3F)ccnc2c1` [Compound 685, 6-cyclopropyl-N-[3-fluoro-4-[(7-methoxy-1,5-naphthyridin-4-yl)oxy]phenyl]-5-(4-fluorophenyl)-1-methyl-4-oxopyridine-3-carboxamide]: the IC50 in assay [1] is under 100 nM; in assay [2] it was under 100 nM; in assay [3], over 300 nM; in assay [4] it was under 100 nM.

In general, IC50 refers to the concentration that gives 50% inhibition.
